The results in this text go back to patent publication US20060058328A1, “Use of N-aryl diazaspiracyclic compounds in the treatment of addiction” (priority 2004, published 2006).

The target in one series is α4β2 subtype (Homo sapiens, UniProt P17787+P43681). Briefly: In vitro pharmacology: antagonism at the α4β2 subtype. The class given is biochemical. An excerpt:
(§1) Such disorders include substance abuse, tobacco use and weight gain that accompanies drug cessation.

Series [1] relates to NNR subtypes affecting dopamine release. Briefly: Antagonism of dopamine release. As to conditions: in vitro. It counts as biochemical. As for the experimental part:
Dopamine release was measured using the techniques described in U.S. Pat. No. 5,597,919 to Dull et al. Release is expressed as a percentage of release obtained with a concentration of (S)-(−)-nicotine resulting in maximal effects. Reported EC50 values are expressed in nM, and Emax values represent the amount released relative to (S)-(−)-nicotine on a percentage basis.
Antagonism of dopamine release can also be evaluated using the assays described in Gradyet al., “Characterization of nicotinic receptor mediated [3H]dopamine release from synaptosomes prepared from mouse striatum,” J. Neurochem. 59: 848-856 (1992) and Soliakov and Wonnacott, “Voltage-sensitive Ca^2+ channels involved in nicotinic receptor-mediated [3H]dopamine release from rat striatal synaptosomes,” J. Neurochem. 67:163-170 (1996).
as §1

The next series deals with rats. The series can be described thus: Fourteen-day preclinical safety pharmacology study. It counts as in vivo.

Chain of α4β2 subtype (P43681 29-627 limits assumed): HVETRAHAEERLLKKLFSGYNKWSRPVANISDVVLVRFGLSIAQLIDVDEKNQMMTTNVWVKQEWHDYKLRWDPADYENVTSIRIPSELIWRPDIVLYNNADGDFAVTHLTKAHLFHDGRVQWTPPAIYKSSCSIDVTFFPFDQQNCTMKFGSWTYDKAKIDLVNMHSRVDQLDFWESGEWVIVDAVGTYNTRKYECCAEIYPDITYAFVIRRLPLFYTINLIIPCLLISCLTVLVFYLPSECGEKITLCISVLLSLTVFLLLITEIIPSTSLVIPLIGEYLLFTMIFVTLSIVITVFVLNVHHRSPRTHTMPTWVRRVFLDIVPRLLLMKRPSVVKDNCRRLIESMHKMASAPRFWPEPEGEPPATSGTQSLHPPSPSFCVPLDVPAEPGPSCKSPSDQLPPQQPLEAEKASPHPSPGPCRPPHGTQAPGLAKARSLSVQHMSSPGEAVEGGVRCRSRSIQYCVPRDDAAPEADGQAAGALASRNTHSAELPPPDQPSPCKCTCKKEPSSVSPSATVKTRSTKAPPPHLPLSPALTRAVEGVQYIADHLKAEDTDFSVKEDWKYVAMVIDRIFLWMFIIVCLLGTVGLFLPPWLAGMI
Chain of α4β2 subtype (P17787 26-502): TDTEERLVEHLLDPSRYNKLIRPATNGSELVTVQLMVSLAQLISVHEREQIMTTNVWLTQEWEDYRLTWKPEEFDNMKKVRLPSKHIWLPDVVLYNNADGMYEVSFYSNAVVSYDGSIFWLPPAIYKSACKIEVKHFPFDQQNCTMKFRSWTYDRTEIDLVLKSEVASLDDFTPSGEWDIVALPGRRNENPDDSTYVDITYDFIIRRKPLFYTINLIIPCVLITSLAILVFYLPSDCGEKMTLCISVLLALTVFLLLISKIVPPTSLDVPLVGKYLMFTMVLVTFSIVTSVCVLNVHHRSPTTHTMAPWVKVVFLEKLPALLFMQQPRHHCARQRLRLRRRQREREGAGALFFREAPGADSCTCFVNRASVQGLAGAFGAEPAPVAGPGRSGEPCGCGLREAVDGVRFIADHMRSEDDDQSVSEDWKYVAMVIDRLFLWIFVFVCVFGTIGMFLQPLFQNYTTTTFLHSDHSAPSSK

As for `Cl.Cl.c1cncc(N2CCC3(CCCN3)C2)c1` (stereo not drawn) [Sample 1, 7-(3-pyridyl)-1,7-diazaspiro[4.4]nonane dihydrochloride], the “Imax, antagonist at the α4β2 subtype” value on α4β2 subtype was found to be 50%. On α4β2 subtype (read-out: IC50, antagonist at the α4β2 subtype), the IC50 – broadly, the concentration needed to halve the response being measured – amounted to 193 µM. Also, the “Imax, antagonist at NNR subtypes affecting dopamine release” value in series [1] is recorded as 67%. In addition, the concentration for half-maximal inhibition (IC50) in series [1] (read-out: IC50, antagonist at NNR subtypes affecting dopamine release) amounted to 0.901 µM. Further, in the series with rats, the stimulant sensitization properties result is “without demonstrating stimulant sensitization properties” and the “weight gain in rats” value is “reduced weight gain”.
